Source: US20180200233A1, “COMPOSITIONS FOR PREVENTING CANCERS ASSOCIATED WITH HUMAN PAPILLOMA VIRUSES” (Loma Linda University, priority 2015, published 2018)

Experiments:
[1] = test system: caspase 8 level in SiHa cells; experiment: Immunoblot of caspase 8 level in SiHa cells; assay type: cell-based, human; details: 50, 100 and 200 μM for 24 hr
Method: FIGS. 6A-B is an immunoblot and FIG. 6B is a graph showing that treatment with myricetin and spinacine (5) increased cellular levels of caspase 8 and p53. (FIG. 6A) SiHa cells (1×10^6 per well) were seeded into a 6-well plate and allowed to incubate overnight. The indicated concentrations of myricetin and spinacine were added, then cells were incubated for 24 h. Cells were then washed in 1×PBS, then harvested and the resulting level of caspase 8 was measured by immunoblot. (FIG. 6B) SiHa and C33A cells (1×10^6 per well) were seeded into a 6-well plate and allowed to incubate overnight. 200 μM of myricetin and 100 μM spinacine were added together with 4 μg/ml mitomycin C and incubated for 24 h. The resulting level of p53 was measured by ELISA, and the level of p53 found in untreated cells was set at 100%. […]
If this ability is due to inhibition of E6 functions, then an increase in the levels of caspase 8 and p53 should be observable in SiHa cells following treatment with myricetin and spinacine. To test this prediction, SiHa cells were treated with 50, 100, and 200 μM of myricetin or spinacine for 24 hr, and then measured the level of caspase 8 by immunoblot. […]
Cells (1×10^6) were collected and washed with PBS. […] Signals were measured using the Odyssey Infrared Imaging system (LI-COR Biosciences) and expressed in relative light units.

[2] = test system: p53 level in C33A cells; experiment: p53 ELISA in C33A cells; assay type: cell-based, human; details: 200 μM myricetin, 100 μM spinacine; with mitomycin C, 24 h
Method: FIGS. 6A-B is an immunoblot and FIG. 6B is a graph showing that treatment with myricetin and spinacine (5) increased cellular levels of caspase 8 and p53. (FIG. 6A) SiHa cells (1×10^6 per well) were seeded into a 6-well plate and allowed to incubate overnight. The indicated concentrations of myricetin and spinacine were added, then cells were incubated for 24 h. Cells were then washed in 1×PBS, then harvested and the resulting level of caspase 8 was measured by immunoblot. (FIG. 6B) SiHa and C33A cells (1×10^6 per well) were seeded into a 6-well plate and allowed to incubate overnight. 200 μM of myricetin and 100 μM spinacine were added together with 4 μg/ml mitomycin C and incubated for 24 h. The resulting level of p53 was measured by ELISA, and the level of p53 found in untreated cells was set at 100%. Experiments were performed in triplicate, and error bars indicate the standard deviation.
If this ability is due to inhibition of E6 functions, then an increase in the levels of caspase 8 and p53 should be observable in SiHa cells following treatment with myricetin and spinacine. To test this prediction, SiHa cells were treated with 50, 100, and 200 μM of myricetin or spinacine for 24 hr, and then measured the level of caspase 8 by immunoblot. […] To ask how p53 levels were affected, an ELISA assay was employed. […]

O=c1c(O)c(-c2cc(O)c(O)c(O)c2)oc2cc(O)cc(O)c12 [Myricetin, reference compound]
caspase 8 levels in SiHa cells (in words) [1]: increase in caspase 8 levels at doses of 100 μM and 200 μM | change in p53 levels in C33A cells (in words) [2]: no significant change

O=C(O)C1Cc2[nH]cnc2CN1 (stereo not shown) [Compound 5, 4,5,6,7-Tetrahydro-1H-imidazo(4,5-c)pyridine-6-carboxylic acid]
caspase 8 levels in SiHa cells (in words) [1]: increase in caspase 8 at doses from 50 to 200 μM | change in p53 levels in C33A cells (in words) [2]: no significant change
